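Compound exposure: 48 hours, 5 concentrations, 96-well plates. GI50: concentration for 50% inhibition of growth. TGI is the concentration that stops growth completely.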
Key:
Assay in all cases: NCI tumour cell line growth inhibition, 48 h
HOP-62 NSCLC = tested on: HOP-62 NSCLC
K-562 leukemia = tested on: K-562 leukemia
KM12 colon = tested on: KM12 colon
LOX IMVI melanoma = tested on: LOX IMVI melanoma
OVCAR-4 ovarian = tested on: OVCAR-4 ovarian
OVCAR-5 ovarian = tested on: OVCAR-5 ovarian
OVCAR-8 ovarian = tested on: OVCAR-8 ovarian
SF-295 CNS = tested on: SF-295 CNS
SNB-19 CNS = tested on: SNB-19 CNS
UO-31 renal = tested on: UO-31 renal

Row | SMILES | TGI (HOP-62 NSCLC) [µM] | TGI (K-562 leukemia) [µM] | TGI (KM12 colon) [µM] | TGI (LOX IMVI melanoma) [µM] | TGI (OVCAR-4 ovarian) [µM] | TGI (OVCAR-5 ovarian) [µM] | TGI (OVCAR-8 ovarian) [µM] | TGI (SF-295 CNS) [µM] | TGI (SNB-19 CNS) [µM] | TGI (UO-31 renal) [µM] | GI50 (HOP-62 NSCLC) [µM] | GI50 (K-562 leukemia) [µM] | GI50 (KM12 colon) [µM] | GI50 (LOX IMVI melanoma) [µM] | GI50 (OVCAR-4 ovarian) [µM] | GI50 (OVCAR-5 ovarian) [µM] | GI50 (OVCAR-8 ovarian) [µM] | GI50 (SF-295 CNS) [µM] | GI50 (SNB-19 CNS) [µM] | GI50 (UO-31 renal) [µM]
1 | CC[C@H]1C=CCC[C@@]2(C[C@@H]3CC[C@@H]4[C@H](C(=O)OCCCCCCCCCCCCCCCC(=O)O)[C@]5(CCC[C@@H](C)O5)NC(=[N+]34)N2)O1 | 3.6 | 5.73 | 5.76 | 0.284 | 6.47 | 8.73 | 8.03 | 2.09 | 9.46 | 0.339 | – | – | – | – | – | – | – | – | – | –
2 | COc1cccc(N=Cc2cc3cc(Br)ccc3nc2Cl)c1 | > 50 | > 50 | > 50 | > 50 | 2.63 | > 50 | > 50 | > 50 | > 50 | > 50 | – | – | – | – | – | – | – | – | – | –
3 | CCCc1[nH]c(SCCCCCCCCSc2nc(-c3ccc(F)cc3)c(CCC)[nH]2)nc1-c1ccc(F)cc1 | > 100 | > 100 | > 100 | > 100 | 95.4 | > 100 | > 100 | – | > 100 | > 100 | – | – | – | – | – | – | – | – | – | –
4 | COc1cc(/C=C/C(=O)c2ccc(NS(=O)(=O)c3cc([N+](=O)[O-])ccc3C)cc2)cc(OC)c1OC | 11.4 | 10.9 | 8.02 | 9.36 | 13.5 | 11.8 | 7.97 | 16.4 | 14.1 | 30.4 | – | – | – | – | – | – | – | – | – | –
5 | CC(=O)Nc1cc([As](=O)(O)O)ccc1O | > 100 | > 100 | > 100 | > 100 | > 100 | > 100 | > 100 | > 100 | > 100 | > 100 | – | – | – | – | – | – | – | – | – | –
6 | CNC(=O)OC(C)CN1c2ccccc2Sc2ccc(Cl)cc21 (centres undefined) | > 10 | > 10 | – | > 10 | > 10 | > 10 | > 10 | > 10 | > 10 | > 10 | – | – | – | – | – | – | – | – | – | –
7 | CCOC(=O)CSc1nc(N)c2c(-c3ccc(OC)c(OC)c3)c3c(nc2n1)CCCC3 | > 100 | > 100 | > 100 | > 100 | > 100 | > 100 | 87.4 | > 100 | > 100 | > 100 | – | – | – | – | – | – | – | – | – | –
8 | CCS(=O)(=O)Nc1ccc(Nc2c3ccccc3nc3ccccc23)c(OC)c1 | 1.21 | 14.6 | 6.72 | 4.26 | 16.1 | 19.4 | 7.71 | 3.34 | 6.41 | 6.34 | – | – | – | – | – | – | – | – | – | –
9 | COc1ccc2nc(N/N=C/C(C)=N/Nc3cc(C)c4cc(OC)ccc4n3)cc(C)c2c1 | 50.5 | 9.81 | 44.1 | 54.8 | 35.6 | 49.5 | 39.5 | 42.8 | 55.8 | > 100 | – | – | – | – | – | – | – | – | – | –
10 | CCOC(=O)N(Cc1cccs1)c1cc(OC)c(OC)c(OC)c1 | > 100 | 65.7 | > 100 | > 100 | > 100 | > 100 | > 100 | > 100 | > 100 | > 100 | – | – | – | – | – | – | – | – | – | –
11 | COc1ccc2nc(-c3ccc(-c4noc(-c5cc(OC)c(OC)c(OC)c5)n4)cc3)[nH]c2c1 | 16.8 | > 100 | 81.8 | 34.6 | 4.79 | 53.8 | 26.4 | 38.3 | 36.8 | 38.7 | 4.44 | 1.2 | 7.52 | 13.3 | 1.88 | 16.7 | 4.93 | 15 | 12.7 | 18.9
12 | CC#CC#C/C=C1/O[C@]2(CCC(OC(C)=O)CO2)[C@@H]2O[C@H]12 (some centres undefined) | > 100 | > 100 | 47.1 | 48.2 | > 100 | 71.2 | > 100 | > 100 | > 100 | 39 | – | – | – | – | – | – | – | – | – | –
13 | Cn1c(=S)[nH]c2sc3c(c2c1=O)CCSC3 | 66.3 | > 100 | > 100 | > 100 | > 100 | > 100 | > 100 | 97.3 | > 100 | 25.8 | – | – | – | – | – | – | – | – | – | –
14 | COc1cc(C2C(C(=O)O)=C(CO)Oc3cc4c(cc32)OCO4)cc(OC)c1O (centres undefined) | > 100 | > 100 | – | > 100 | > 100 | – | > 100 | > 100 | > 100 | > 100 | – | – | – | – | – | – | – | – | – | –
15 | CN1CC[C@@]2(c3cccc(O)c3)CC(=O)/C(=C/c3ccccc3)[C@H]1C2 | 58.7 | 6.52 | > 30.4 | 3.46 | 22.2 | 32.2 | > 48 | 23.8 | 19.5 | 25.5 | – | – | – | – | – | – | – | – | – | –
16 | N=c1c2c(C(N)=O)cn(C3OC(CO)C(O)C3O)c2ncn1O (centres undefined) | 0.873 | – | 0.753 | 0.438 | 6.81 | 1.3 | 0.607 | 1.42 | > 100 | > 20.6 | – | – | – | – | – | – | – | – | – | –
17 | COc1ccc(/C=C2\C(=O)N(C3OC(COC(C)=O)C(OC(C)=O)C(OC(C)=O)C3OC(C)=O)c3ccccc3N=C2N)cc1 (centres undefined) | > 100 | 38.1 | > 100 | 89.4 | > 100 | > 100 | 45.6 | 72.1 | > 100 | > 100 | – | – | – | – | – | – | – | – | – | –
18 | COc1cc(C=C2C(C)=NN(c3cccc(Cl)c3)C23SCC(=O)N3c2nc3ccccc3s2)ccc1O (centres undefined) | 91.5 | 37.2 | > 95.1 | > 69 | > 100 | > 100 | 50.5 | > 100 | > 100 | > 92.2 | – | – | – | – | – | – | – | – | – | –
19 | CCN(CC)CC(C)Nc1ccc([N+](=O)[O-])c2sc3ccccc3c(=O)c12 (centres undefined) | 12.3 | 3.74 | 13.5 | 2.39 | > 100 | > 100 | > 100 | 9.95 | 32.7 | 3.29 | 2.28 | 1.46 | 2.14 | 1.02 | 3.48 | 3.63 | 2.58 | 1.4 | 2.07 | 1
20 | O=C(CCCCCCC(=O)Nc1ccc(N(CCCl)CCCl)cc1)NO | 13.5 | 12.3 | 21.7 | 3.78 | 32.4 | 30.6 | 21 | 10.2 | 29 | 13 | 2.98 | 1.75 | 6.58 | 1.34 | 3.37 | 2.56 | 1.79 | 1.91 | 4.12 | 1.82
21 | ONc1ncnc2nc[nH]c12 | > 100 | > 100 | > 100 | – | > 100 | > 100 | > 100 | > 100 | > 100 | > 100 | – | – | – | – | – | – | – | – | – | –
22 | Cc1nc(N)nc(N)c1-c1ccc(Cl)c(Cl)c1 | > 100 | > 100 | > 100 | > 100 | > 100 | > 100 | > 100 | > 100 | > 100 | > 89.3 | – | – | – | – | – | – | – | – | – | –
23 | O=S(=O)(O)c1ccc2cccc(N=Nc3c(O)ccc4ccccc34)c2c1 | > 100 | > 100 | > 100 | – | > 100 | > 100 | > 100 | > 100 | > 100 | > 100 | – | – | – | – | – | – | – | – | – | –
24 | Cc1cccc2nc3c(C(=O)NCCN(C)C)cccc3cc12 | 4.88 | 8.22 | 9.47 | 4.76 | 7.46 | 6.59 | 6.58 | 4.65 | 5.2 | 5.44 | – | – | – | – | – | – | – | – | – | –
25 | CC1SC(c2ccccc2)N(CCc2cccs2)C1=O (centres undefined) | 25.9 | > 100 | 13.3 | 13.7 | 13 | 27 | 31.2 | 15.7 | 19.9 | – | 11 | 3.94 | 3.44 | 2.9 | 2.45 | 10.3 | 4.72 | 3.35 | 5.06 | –
26 | O=C(N/N=C(/c1ccccc1)C(F)(F)F)c1ccncc1 | > 100 | > 100 | > 100 | – | – | > 100 | > 100 | > 100 | > 100 | > 100 | – | – | – | – | – | – | – | – | – | –

— PubChem BioAssay (NCI)
